Columns and labels:
[1] = test system: 3T3-L1 cells; experiment: Adipocyte differentiation, Oil Red O staining; format: cell-based, mouse; conditions: preadipocytes 7 days in differentiating media (DM) + compound
Procedure: Two-day post-confluent 3T3-L1 preadipocyte cells were allowed to differentiate for 7 days in the presence of nothing, DM only, DM+ a test compound (COH-SR1, COH-SR2, COH-SR3, COH-SR4, COH-SR7, LR23 or LR59), or DM+ a positive control (TSA, C75, or Apicidin).
(§1) 3T3-L1 preadipocytes cells were treated with differentiating media (DM) with COH-SR4 (1 μM, 3 μM, or 5 μM) or without for 7 days. […] As used in FIG. 9C, U=undifferentiated, D=differentiated with cocktail media.

[2] = test system: 3T3-L1 cells; experiment: Intracellular triglyceride contents, AdipoRed Assay; format: cell-based, mouse; conditions: 7 days in DM + compound
Procedure: Intracellular triglyceride contents were measured using AdipoRed Assay™ and the results were shown in relative fluorescence units (RFU) in FIG. 5.
as §1

[3] = test system: fully differentiated adipocytes; experiment: Dedifferentiation of fully differentiated adipocytes, Oil Red O staining; format: cell-based; conditions: differentiated 7 days, treated additional 3 days
Procedure: Fully differentiated adipocyte cells were differentiated for 7 days and were treated for additional 3 days with DM+ a test compound (COH-SR3, COH-SR7, or LR59), DM+ a positive control (Apicidin, TSA or C75), DM, or nothing (control).

[4] = test system: undifferentiated 3T3-L1 cells; experiment: Preadipocyte viability, MTT assay; format: cell-based, mouse; conditions: 3 days, 2.5-25 μM
Procedure: Undifferentiated 3T3-LI cells were treated with COH-SR2, COH-SR3, COH-SR4, COH-SR7, LR23 or LR59 for 3 days at a concentration of 2.5 μM, 5 μM, 10 μM, 15 μM, 20 μM, or 25 μM. The cell viability for each treatment was determined by MTT assay (FIG. 7).

[5] = test system: HL-60 cells; experiment: Differentiation of HL-60 cells (Giemsa-Wright, NBT, CD11b/CD14); format: cell-based, human; conditions: 48 hours, 2-10 μM
Procedure: HL-60 cells were incubated with a test compound at various concentrations (2˜10 μM), DMSO, or without any test compound for 48 hours, and then examined for morphologic changes by Giemsa-Wright stain. The results were observed microscopically and shown in FIG. 13 at a magnification of ×400. […] Such results were similar to cells treated with DMSO or all-trans retinoic acid (ATRA), wherein DMSO or ATRA terminally differentiated HL-60 cells into myeloid cells (FIG. 13).
HL-60 cells (2.5×10^5) were treated with or without a test compound for 48 hours and then stained with NBT, wherein positively-stained cells appeared as purple black (FIG. 14A). NBT positive cells were counted and the overall percentage was calculated based on 200 total cells counted for each treatment. Three˜four independent experiments were carried out, and data are shown as mean±SE (FIG. 14B). This measurement of “oxidative burst” by the NBT assay is a well-known and extensively tested functional marker of HL-60 cell differentiation.
HL-60 cells (2.5×10^5) were incubated with a test compound (COH-SR4 or COH-SR9) at a concentration of 0.5 μM, 1 μM, 2 μM, or 3 μM, or without any COH-SR compound for 48 hours and then assessed for the surface expression of CD11b (FIG. 14C) and CD14 (FIG. 14D) by flow cytometry, respectively. Three-four independent experiments were carried out, and data are shown as mean±SE (FIGS. 14C and 14D).

[6] = test system: AMPK; experiment: AMPK activation in Hela cells, Western blot; format: cell-based; conditions: 1 hour, 1, 3 or 5 μM
Procedure: Activation of AMPK was associated with the phosphorylation of the α-subunit on Thr-172 of as assessed using phospho-specific antibodies (FIGS. 10A-B). AMPK activation also leads to the increased phosphorylation of the target protein acetyl-CoA carboxylase (ACC) (FIG. 10B).
Cells of each cell lines (Hela, HL-60, and 3T3-L1) were treated for 1 hour with a test compound (COH-SR4, COH-SR9, COH-SR16, or COH-SR18) at a concentration of 1 μM, 3 μM, or 5 μM, or AICAR (5-aminoimidazole-4-carboxamideriboside, an AMPK agonist used as positive control) at a concentration of 500 μM, or none of the above (the untreated cells as negative control). Total cell lysates from the untreated cells and the cells treated with a test compound or AICAR were analyzed by Western blot assay using specific antibodies against phospho-AMPK, phospho-ACC, total AMPK and total ACC.

[7] = test system: NCI-60 human tumor cell lines; experiment: NCI-60 DTP Human Tumor Cell Line Drug Screening; format: cell-based; conditions: leukemia, NSCLC, colon, CNS, melanoma, ovarian, renal, prostate, breast lines
Source text: Moreover, preliminary data from the NCI-60 DTP Human Tumor Cell Line Drug Screening (http://dtp.nci.nih.gov/branches/btb/ivclsp.html) further confirmed the observations on these COH-SR compounds. […] A value of 100 meant no growth inhibition. A value of 20 meant 80% growth inhibition. A value of 0 meant no net growth over the course of the experiment. A value of −40 meant 40% lethality. A value of −100 meant all cells were dead.

[8] = test system: HL-60 cells; experiment: HL-60 cell viability, MTT assay
Procedure: Three independent experiments were carried out with 3 duplications each, and data are shown as mean±SE.

[9] = test system: U251; experiment: Glioma ATP viability assay, U251; format: cell-based; conditions: Table 2
Procedure: Cells of each cell line (U251, U87, PBT-017, PBT018, PBT003 and PBT028) were treated with various concentrations (0˜100 μM) of COH-SR4 for 72 hours. Cell viabilities were determined by ATP viability assays. Data were represented as a ratio to vehicle (DMSO) control, and plotted as mean±SEM (n=12) obtained from 2˜3 experiments (FIG. 34A).
Cells of each cell line (U87, U251, PBT003 and PVT-017) were treated with various concentrations (0˜100 μM) of COH-SR4 for 72 hours. Cell viabilities were determined by ATP viability assays. Data were represented as a ratio to vehicle (DMSO) control, and plotted as mean±SEM (n=12) obtained from 2-3 experiments (FIG. 34B).
Cells of each cell line were treated with various concentrations (0˜100 μM) of COH-SR4 or various concentrations (0˜1000 μM) of TMZ for 72 hours. Cell viabilities were determined by ATP viability assays. Data were represented as a ratio to untreated cells as control, and plotted as mean±SEM (n=12) obtained from 2˜3 experiments (FIGS. 43A-B).

[10] = test system: HMLE breast cancer cell line; experiment: HMLE viability, DIMSCAN assay; format: cell-based, human; conditions: 3 days, 2-50 μM
Procedure: The effects of COH-SR compounds on breast cancer cells were investigated. Cells from 4T1 or HMLE breast cancer cell line were seeded in 96-well plates (about 2000 cells/well), allowed to proliferate for one day, treated with a COH-SR compound, doxorubicin, paclitaxel, cisplatin, or nothing (control) at a specific dose (3 wells for each treatment) and assayed for cell viability 3 days after using DIMSCAN assay. COH-SR3, COH-SR4, COH-SR9, doxorubicin, paclitaxel, and cisplatin were used at a dosage of 40 nM, 200 nM, 1 μM, 2 μM, 10 μM, or 50 μM for 4T1 breast cancer cell lines. COH-SR14 was used at a dosage of 40 nM, 200 nM, 1 μM, 2 μM, or 10 μM for 4T1 breast cancer cell lines. COH-SR3, COH-SR4, COH-SR9, doxorubicin, paclitaxel, and cisplatin were used at a dosage of 2 μM, 10 μM, or 50 μM for HMLE breast cancer cell lines. COH-SR14 was used at a dosage of 2 μM, or 10 μM for HMLE breast cancer cell lines.

Compound | differentiation and accumulation of lipid droplets (Oil Red O staining) [1] | intracellular triglyceride contents (AdipoRed Assay) [2] | activity in NCI-60 screening [7] | further results
CC(C)(Oc1ccc(NC(=O)Nc2cc(Cl)cc(Cl)c2)cc1)C(=O)Nc1ccc(C(=O)O)cc1 [COH-SR7, 4-[(3,5-dichlorophenylureido)phenoxyisobutyril]-4-aminobenzoic acid] | dose-dependently inhibited differentiation and accumulation of lipid droplets | dose-dependently reduced | – | dedifferentiation of fully differentiated adipocytes [3]: induced dedifferentiation of fully differentiated adipocytes; growth of undifferentiated preadipocytes (MTT) [4]: inhibited growth of undifferentiated 3T3-L1 cells; morphologic changes (Giemsa-Wright stain), myeloid differentiation [5]: exhibited cytoplasmic vacuolation, reduced nucleus-to-cytoplasmic ratio, and absence of prominent nucleoli
1-(4-chlorobenzyl)-3-dichlorophenyeureido)-4-phenoxyisobutyric acid [LR59] | dose-dependently inhibited differentiation and accumulation of lipid droplets | dose-dependently reduced | – | dedifferentiation of fully differentiated adipocytes [3]: induced dedifferentiation of fully differentiated adipocytes
O=C(Nc1cc(Cl)cc(Cl)c1)Nc1cc(Cl)nc(Cl)c1 [COH-SR16, 1-(2,6-dichloropyridin-4-yl)-3-(3,5-dichlorophenyl) urea] | – | – | active against | AMPK activation [6]: Dose-dependent AMPK activation
COc1ccc(-c2ccccc2)cc1NC(=O)Nc1cc(Cl)cc(Cl)c1 [COH-SR6, 1-(3,5-dichlorophenyl)-3-(4-methoxy-[1,1′-bisphenyl]-3-yl) urea] | – | – | active against | morphologic changes (Giemsa-Wright stain), myeloid differentiation [5]: exhibited cytoplasmic vacuolation, reduced nucleus-to-cytoplasmic ratio, and absence of prominent nucleoli; cytotoxicity and cell proliferation ([8]; 48 hours, 1-15 μM): exhibited cytotoxicity and prevented cell proliferation of HL-60 leukemia cells
COc1cc(CCC(=O)CC(=O)CCc2ccc(OC(C)=O)c(OC)c2)ccc1OC(C)=O [COH-SR1, 1,7-bis(4′-acetoxy-3′-methoxyphenyl)-3,5-heptadione] | dose-dependently inhibited differentiation and accumulation of lipid droplets | dose-dependently reduced | – | –
CCc1c2c(nc3ccc(O)cc13)-c1cc3c(c(=O)n1C2)COC(=O)[C@]3(O)CC [SN-38, 7-ethyl-10-hydroxy-camptothecin] | – | – | – | IC50 ([9]; 72 hours): 0.04 µM
CCc1c2c(nc3ccc(OC(=O)N4CCC(N5CCCCC5)CC4)cc13)-c1cc3c(c(=O)n1C2)COC(=O)[C@]3(O)CC [CPT-11, irinotecan] | – | – | – | IC50 ([9]; Homo sapiens, U-251, 72 h): 41.1 µM
Cc1c(Cl)cc(NC(=O)Nc2cc(Cl)cc(Cl)c2)cc1Cl [COH-SR14, 1-(3,5-dichloro-4-methylphenyl)-3-(3,5-dichlorophenyl) urea] | – | – | active against | cytotoxic effects compared with doxorubicin, paclitaxel and cisplatin (FIG. 30) [10]: more potent cytotoxic effects; IC50 ([8]; Homo sapiens, HL-60, 48 h): < 5 µM
CC(C)(Oc1ccc(NC(=O)Nc2cc(Cl)cc(Cl)c2)cc1)C(=O)NC1(C(=O)O)CCCCC1 [LR23, 4-(3,5-dichlorophenylureido)phenoxyisobutyryl-1-amidocyclohexane-lcarboxylic acid] | dose-dependently inhibited differentiation and accumulation of lipid droplets | dose-dependently reduced | – | –
O=c1[nH]cc(F)c(=O)[nH]1 [5-FU] | – | – | – | IC50 ([9]; 72 hours): 61 µM
COc1cc(/C=C/C(=O)/C=C(O)/C=C/c2ccc(OC(C)=O)c(OC)c2)ccc1O [COH-SR2, (1E,4Z,6E)-7-(4″-acetoxy-3″-methoxyphenyl)-5-hydroxy-1-(4′-hydroxy-3′-methoxyphenyl)hepta-1,4,6-trien-3-one] | dose-dependently inhibited differentiation and accumulation of lipid droplets | dose-dependently reduced | active against | growth of undifferentiated preadipocytes (MTT) [4]: inhibited growth of undifferentiated 3T3-L1 cells
O=C(Nc1cc(Cl)cc(Cl)c1)Nc1ccnc(Cl)n1 [COH-SR18, 1-(2-chloropyrimidin-4-yl)-3-(3,5-dichlorophenyl) urea] | – | – | – | AMPK activation [6]: Dose-dependent AMPK activation

Source: patent US9808434B2, “Compound for treating cancer and diabetes” (CITY OF HOPE, priority 2011, dated 2017)
